Measurements reported in US20200038513A1, “MODULATORS OF FAK PROTEOLYSIS AND ASSOCIATED METHODS OF USE” (ARVINAS OPERATIONS, INC., priority 2018, published 2020).

System: MDA-MB-231 cells
Test: RPPA (reverse phase protein array)
Type: cell-based, human
Conditions: 1000nM
Procedure: RPPA analysis was performed by MD Anderson Cancer Center RPPA core facility.
Examination of the Molecular Signaling Events) and/or Downstream Pathways Responsible for the Migration and Invasion Effects Observed by Exemplary Compound Treatment. To pinpoint these observations to a molecular signaling event or specific downstream pathway, reverse phase protein array (RPPA) analysis was performed (Table 4).

## CNC(=O)c1ccc(Nc2ncc(C(F)(F)F)c(NCc3nccnc3N(C)S(C)(=O)=O)n2)cc1 [Defactinib, defactinib, reference compound]
  rel. Protein level, 4E-BP1: 115.6%
  rel. Protein level, 4E-BP1_pS65: 91.8%
  rel. Protein level, 14-3-3-beta: 98.4%
  rel. Protein level, 14-3-3-zeta: 102.9%
  rel. Protein level, 53BP1: 111.6%
  rel. Protein level, A-Raf: 108.3%
  rel. Protein level, ACC1: 95.9%
  rel. Protein level, ACC_pS79: 102.5%
  rel. Protein level, ADAR1: 111.8%
  rel. Protein level, AMPK-a2_pS345: 98.1%
  rel. Protein level, AMPKa: 105.6%
  rel. Protein level, AMPKa_pT172: 101.3%
  rel. Protein level, AR: 103.1%
  rel. Protein level, ARID1A: 100.8%
  rel. Protein level, ATM: 93.9%
  rel. Protein level, ATM_pS1981: 99.4%
  rel. Protein level, ATR_pS428: 93.7%
  rel. Protein level, Akt: 99.2%
  rel. Protein level, Akt_pS473: 79.3%
  rel. Protein level, Akt_pT308: 97.2%
  rel. Protein level, Annexin-I: 96.1%
  rel. Protein level, Annexin-VII: 107.8%
  rel. Protein level, Atg3: 98.1%
  rel. Protein level, Atg7: 99.5%
  rel. Protein level, Aurora-B: 91.9%
  rel. Protein level, Axl: 76.0%
  rel. Protein level, B7-H4: 102.6%
  rel. Protein level, B-Raf: 104.8%
  rel. Protein level, B-Raf_pS445: 108.8%
  rel. Protein level, BAP1: 83.5%
  rel. Protein level, BRD4: 108.7%
  rel. Protein level, Bad_pS112: 103.3%
  rel. Protein level, Bak: 103.1%
  rel. Protein level, Bax: 106.4%
  rel. Protein level, Bc1-xL: 100.4%
  rel. Protein level, Bc12: 112.9%
  rel. Protein level, Beclin_l: 99.2%
  rel. Protein level, BiP-GRP78: 103.7%
  rel. Protein level, Bid: 109.2%
  rel. Protein level, Bim: 105.6%
  rel. Protein level, C-Raf: 96.5%
  rel. Protein level, C-Raf_pS338: 98.1%
  rel. Protein level, CD4: 103.7%
  rel. Protein level, CD20: 96.8%
  rel. Protein level, CD29: 101.9%
  rel. Protein level, CD31: 100.7%
  rel. Protein level, CD44: 100.5%
  rel. Protein level, CD45: 117.4%
  rel. Protein level, CD49b: 105.5%
  rel. Protein level, CD134: 100.5%
  rel. Protein level, CDK1_pT14: 84.4%
  rel. Protein level, COG3: 105.5%
  rel. Protein level, Caspase-3: 108.3%
  rel. Protein level, Caspase-7-cleaved-: 107.0%
  rel. Protein level, Caspase-8: 97.2%
  rel. Protein level, Caveolin-1: 135.0%
  rel. Protein level, Chk2: 97.0%
  rel. Protein level, Chk2_pT68: 106.0%
  rel. Protein level, Chkl: 84.1%
  rel. Protein level, Chkl_pS296: 98.2%
  rel. Protein level, Claudin-7: 97.3%
  rel. Protein level, Collagen-VI: 102.5%
  rel. Protein level, Connexin-43: 86.5%
  rel. Protein level, Cox2: 144.9%
  rel. Protein level, Cox-IV: 101.8%
  rel. Protein level, Creb: 103.7%
  rel. Protein level, Cyclin-B1: 86.8%
  rel. Protein level, Cyclin-D1: 100.5%
  rel. Protein level, Cyclin-D3: 97.2%
  rel. Protein level, Cyclin-E1: 101.8%
  rel. Protein level, Cyclophilin-F: 85.5%
  rel. Protein level, D-a-Tubulin: 98.2%
  rel. Protein level, DJ1: 105.3%
  rel. Protein level, DM-Histone-H3: 106.7%
  rel. Protein level, DM-K9-Histone-H3: 108.9%
  rel. Protein level, DUSP4: 135.6%
  rel. Protein level, E2F1: 98.4%
  rel. Protein level, E-Cadherin: 122.5%
  rel. Protein level, EGFR: 93.7%
  rel. Protein level, EGFR_pY1173: 100.8%
  rel. Protein level, EMA: 102.2%
  rel. Protein level, ENY2: 95.1%
  rel. Protein level, ER: 99.6%
  rel. Protein level, ER-a_pS118: 98.5%
  rel. Protein level, ERCC1: 85.6%
  rel. Protein level, ERCC5: 110.3%
  rel. Protein level, Elk1_pS383: 97.3%
  rel. Protein level, Ets-1: 90.6%
  rel. Protein level, FAK: 116.1%
  rel. Protein level, FAK_pY397: 93.5%
  rel. Protein level, FASN: 98.1%
  rel. Protein level, FOXM1: 90.3%
  rel. Protein level, Fibronectin: 89.9%
  rel. Protein level, FoxO3a: 104.9%
  rel. Protein level, FoxO3a_pS318_S321: 99.0%
  rel. Protein level, G6PD: 102.3%
  rel. Protein level, GAPDH: 104.0%
  rel. Protein level, GATA3: 91.1%
  rel. Protein level, GATA-6: 99.4%
  rel. Protein level, GCLM: 97.0%
  rel. Protein level, GCN5L2: 94.5%
  rel. Protein level, GSK-3a-b: 101.2%
  rel. Protein level, GSK-3a-b_pS21_S9: 98.8%
  rel. Protein level, Gab2: 94.6%
  rel. Protein level, Glutamate-D1-2: 100.6%
  rel. Protein level, Glutaminase: 100.6%
  rel. Protein level, Granzyme-B: 102.7%
  rel. Protein level, Gys: 107.0%
  rel. Protein level, Gys_pS641: 106.2%
  rel. Protein level, H2AX_pS140: 101.9%
  rel. Protein level, HER2: 91.7%
  rel. Protein level, HER2_pY1248: 101.5%
  rel. Protein level, HER3: 98.5%
  rel. Protein level, HER3_pY1289: 98.2%
  rel. Protein level, HES1: 97.2%
  rel. Protein level, HLA-DR-DP-DQ-DX: 98.9%
  rel. Protein level, HSP27: 101.4%
  rel. Protein level, HSP27_pS82: 114.2%
  rel. Protein level, HSP70: 103.2%
  rel. Protein level, Heregulin: 109.2%
  rel. Protein level, Hexokinase-II: 98.0%
  rel. Protein level, Hif-l-alpha: 116.1%
  rel. Protein level, Histone-H3: 123.3%
  rel. Protein level, IGF1R_pY1135_Y1136: 98.7%
  rel. Protein level, IGFBP2: 90.9%
  rel. Protein level, IGFRb: 99.7%
  rel. Protein level, INPP4b: 99.6%
  rel. Protein level, IR-b: 110.0%
  rel. Protein level, IRF-1: 104.1%
  rel. Protein level, IRS1: 96.1%
  rel. Protein level, JNK2: 111.4%
  rel. Protein level, JNK_pT183_Y185: 99.7%
  rel. Protein level, Jagged1: 107.3%
  rel. Protein level, Jak2: 104.3%
  rel. Protein level, LC3A-B: 102.5%
  rel. Protein level, LDHA: 121.2%
  rel. Protein level, LRP6_pS1490: 109.2%
  rel. Protein level, Lck: 101.9%
  rel. Protein level, MAPK_pT202-Y204: 98.0%
  rel. Protein level, MCT4: 119.5%
  rel. Protein level, MDM2_pS166: 92.3%
  rel. Protein level, MEK1: 110.2%
  rel. Protein level, MEK1_p_S217-S221: 98.0%
  rel. Protein level, MERIT40_pS29: 91.1%
  rel. Protein level, MIF: 118.6%
  rel. Protein level, MIG6: 133.9%
  rel. Protein level, MMP2: 103.4%
  rel. Protein level, MMP14-[EP1264Y]: 138.0%
  rel. Protein level, MMP-14: 139.1%
  rel. Protein level, MSH6: 99.2%
  rel. Protein level, MSI2: 100.7%
  rel. Protein level, Mcl-1: 101.9%
